Here are results for 22 molecules from ChEMBL document CHEMBL4190384, “Design, synthesis and biological evaluation of substituted (+)-SG-1 derivatives as novel anti-HIV agents” (Bioorg Med Chem Lett, 2018).

A value given as a limit tells only on which side of the number the result lay.

Data set [1] relates to Human immunodeficiency virus 1. Put plainly: Antiviral activity against HIV1 virions derived from HIV/[…] or HIV/HA virions infected 293T cells using human A549 cells as target cells assessed as inhibition of viral replication using compound pre-mixed virions followed by incubation with target cells for 24 hrs by luciferase reporter gene assay based defective HIV1 pseudoviral assay. To be noted: Human immunodeficiency virus 1, 24 h. The data set is classed as functional, organism-based. (Reporter assays use an easily measured gene product as a stand-in for the process of interest.)

For the next data set, the system named is A549. Put plainly: Cytotoxicity against human A549 cells at 10 uM after 48 hrs by CellTiter 96 AQueous one solution cell proliferation assay. The data set is classed as cell-based. To be noted: a549, 48 h.
The test system of data set [2] is Human immunodeficiency virus 1. Put plainly: Resistance index, ratio of IC50 for antiviral activity against HIV1 virions containing reverse transcriptase E138K/M184V mutant derived from HIV/VSG-G or HIV/HA virions infected 293T cells using human A549 cells as target cells to IC50 for antiviral activity against wild type HIV1 virions derived from HIV/VSG-G or HIV/HA virions infected 293T cells using human A549 cells as target cells. The data set is classed as functional.

For data set [3], the system named is Human immunodeficiency virus 1. Put plainly: Resistance index, ratio of IC50 for antiviral activity against HIV1 virions containing reverse transcriptase K103N mutant derived from HIV/[…] or HIV/HA virions infected 293T cells using human A549 cells as target cells to IC50 for antiviral activity against wild type HIV1 virions derived from HIV/[…] or HIV/HA virions infected 293T cells using human A549 cells as target cells. It is filed as functional.

The test system of data set [4] is Human immunodeficiency virus 1. Put plainly: Antiviral activity against HIV1 virions containing reverse transcriptase Y181C mutant derived from HIV/VSG-G or HIV/HA virions infected 293T cells using human A549 cells as target cells assessed as inhibition of viral replication using compound pre-mixed virions followed by incubation with target cells for 24 hrs by luciferase reporter gene assay based defective HIV1 pseudoviral assay. Conditions: Human immunodeficiency virus 1, 24 h. The data set is classed as functional, organism-based.

The subject of data set [5] is Human immunodeficiency virus 1. Put plainly: Antiviral activity against HIV1 virions containing reverse transcriptase K103N mutant derived from HIV/VSG-G or HIV/HA virions infected 293T cells using human A549 cells as target cells assessed as inhibition of viral replication using compound pre-mixed virions followed by incubation with target cells for 24 hrs by luciferase reporter gene assay based defective HIV1 pseudoviral assay. The data set is classed as functional, organism-based. Conditions: Human immunodeficiency virus 1, 24 h.

Data set [6] relates to Human immunodeficiency virus 1. Put plainly: Antiviral activity against HIV1 virions containing reverse transcriptase E138K/M184V mutant derived from HIV/VSG-G or HIV/HA virions infected 293T cells using human A549 cells as target cells assessed as inhibition of viral replication using compound pre-mixed virions followed by incubation with target cells for 24 hrs by luciferase reporter gene assay based defective HIV1 pseudoviral assay. It is filed as functional, organism-based. To be noted: Human immunodeficiency virus 1, 24 h.

Data set [7] relates to Human immunodeficiency virus 1. Put plainly: Resistance index, ratio of IC50 for antiviral activity against HIV1 virions containing reverse transcriptase Y181C mutant derived from HIV/[…] or HIV/HA virions infected 293T cells using human A549 cells as target cells to IC50 for antiviral activity against wild type HIV1 virions derived from HIV/[…] or HIV/HA virions infected 293T cells using human A549 cells as target cells. It is filed as functional.

Data set [8] deals with Human immunodeficiency virus 1. Put plainly: Antiviral activity against human HIV1 by VSV-G/HIV1 infection assay. It is filed as functional, organism-based.

`CCCC1CCc2cc(OC)c(OC)cc2N1c1cc(OC)c(OC)c(OC)c1` (racemic): the IC50 in [1] turned out to be 1.28 µM. Also, in the data set with A549, the Activity result is recorded as “Non-Toxic”.
`Cc1ccnc2c1NC(=O)c1cccnc1N2C1CC1` [NEVIRAPINE]: the “Ratio IC50” value in data set [2] worked out at 1.7; in data set [3], 70; in data set [7], 220. Besides, the IC50 in data set [4] came to 2.86 µM; in [1], 0.013 µM; in [5], 0.91 µM; in data set [6], 0.022 µM.
On to `COc1ccc(/C(=N/O)c2cc(OC)c(OC)c(OC)c2)cc1OC`, for which the 50% inhibitory concentration (IC50) in data set [1] is > 10 µM. For the same molecule, the Activity result with A549 is listed as “Non-Toxic”.
As to `COc1ccc([C@@H]2c3cc(OC)c(OC)cc3C[C@H](C)[C@H]2C)cc1OC`, the IC50 in [1] was > 10 µM. Further, the Activity result in the data set with A549 is “Non-Toxic”.
With `CO/N=C(\c1ccc(OC)c(OC)c1)c1cc(OC)c(OC)c(OC)c1`, in data set [1], the IC50 was > 10 µM. The Activity result in the data set on A549 is given as “Non-Toxic”.
Consider `COc1cc2c(cc1OC)N(c1cc(OC)c(OC)c(OC)c1)C(=O)CC2`, for which the IC50 in data set [1] was > 10 µM. Besides, the Activity result in the data set with A549 is recorded as “Non-Toxic”.
The matching figures for `CCC1CCc2cc(OC)c(OC)cc2N1c1cc(OC)c(OC)c(OC)c1` (racemic): 0.72 µM and “Non-Toxic”.
As to `COc1cc2c(cc1OC)[C@@H](c1ccc3c(c1)OCO3)[C@H](C)[C@@H](C)C2`, the IC50 in [1] was > 10 µM. In addition, the Activity entry in the data set with A549 is “Non-Toxic”.
With `COc1cc2c(cc1OC)N(c1cc(OC)c(OC)c(OC)c1)CCC2`, in data set [1], the IC50 amounted to 4.96 µM. Moreover, in the data set on A549, the Activity entry is reported as “Non-Toxic”.
Regarding `COc1ccc([C@H]2c3cc(OC)c(OC)cc3C[C@@H]2C)cc1OC`, in data set [1], the concentration for half-maximal inhibition (IC50) was determined as 4.42 µM. In addition, the Activity result in the data set with A549 is on record as “Non-Toxic”.
`COc1cc2c(cc1OC)[C@@H](c1cc(OC)c(OC)c(OC)c1)[C@H](C)[C@@H](C)C2`: the IC50 in [1] was > 10 µM. The Activity entry in the data set on A549 is given as “Non-Toxic”.
Consider `COc1cc2c(cc1OC)[C@H](c1cc(OC)c(OC)c(OC)c1)[C@@H](C)CC2`, for which the “Ratio IC50” value was 2 in data set [2], 1.7 in data set [3] and >111 in [7]. Also, the IC50 is > 10 µM in data set [4], 0.09 µM in [1], 0.15 µM in data set [5] and 0.18 µM in data set [6]. For the same molecule, the Activity result in the data set on A549 is “Non-Toxic”.
Regarding `COc1cc2c(cc1OC)[C@H](c1cc(OC)c(OC)c(OC)c1)[C@@H](C)[C@@H](C)C2`, the “Ratio IC50” value amounted to 8.6 in [2], 1.1 in data set [3] and 67.5 in data set [7]. The IC50 in data set [4] came out at 10.8 µM; in data set [1], 0.16 µM; in [5], 0.18 µM; in [6] it was 1.38 µM. Moreover, in the data set with A549, the Activity result is “Non-Toxic”.
In the case of `COc1ccc([C@H]2c3cc(OC)c(OC)cc3C[C@H](C)[C@@H]2C)cc1OC`, the “Ratio IC50” value is 4.7 in [2], 1.6 in [3] and >11.6 in data set [7]. Besides, the IC50 is > 10 µM in data set [4]; 0.86 µM in [1]; 1.38 µM in data set [5]; 4.02 µM in data set [6]; 1.07 µM in [8]. For the same molecule, in the data set on A549, the Activity result is “Non-Toxic”.
On to `Nc1ccn([C@@H]2CS[C@H](CO)O2)c(=O)n1` [LAMIVUDINE], for which the “Ratio IC50” value in data set [2] is >19.6. The half-inhibitory concentration (IC50) in data set [1] was 0.51 µM; in data set [6], > 10 µM.
For `COc1cc(CCC(=O)N2C(=O)OC[C@@H]2Cc2ccccc2)cc(OC)c1OC`, the IC50 in [1] was > 10 µM. Further, the Activity result in the data set on A549 is “Non-Toxic”.
For the molecule `COc1cc2c(cc1OC)C(c1cc(OC)c(OC)c(OC)c1)CCC2` (racemic), the IC50 in data set [1] was 6.71 µM. In addition, the Activity result in the data set with A549 is listed as “Non-Toxic”.
Take `COc1cc2c(cc1OC)[C@@H](c1cc(OC)c(OC)c(OC)c1)[C@H](C)CC2`: the “Ratio IC50” value was 7 in [2], 1.7 in [3] and >9.8 in data set [7]. Further, the IC50 in [4] is > 10 µM; in data set [1], 1.02 µM; in data set [5], 1.73 µM; in data set [6] it was 7.13 µM. For the same molecule, the Activity entry in the data set on A549 is “Non-Toxic”.
Turning to `COc1cc2c(cc1OC)[C@H](c1cc(OC)c(OC)c(OC)c1)[C@@H](C)C2`, the IC50 in [1] was 0.34 µM. The Activity entry in the data set with A549 is “Non-Toxic”.
The matching figures for `COc1ccc(C(=O)c2cc(OC)c(OC)c(OC)c2)cc1OC`: > 10 µM and “Non-Toxic”.
As for `COc1cc2c(cc1OC)N(c1cc(OC)c(OC)c(OC)c1)C(C)CC2` (racemic), the figures for the “Ratio IC50” value in data set [2], in data set [3] and in data set [7] were 9.1, 1.5 and >10.6, respectively. The IC50 in data set [4] was > 10 µM; in data set [1], 0.94 µM; in [5] it was 1.4 µM; in data set [6], 8.53 µM. In addition, the Activity result with A549 was “Non-Toxic”.
As to `COc1cc([C@H]2c3c(cc(OC)c(OC)c3OC)C[C@H](C)[C@@H]2C)cc(OC)c1OC`, the “Ratio IC50” value was 8.6 in [2], 1.1 in [3] and >14.5 in [7]. Further, the half-maximal inhibitory concentration (IC50) in [4] is > 10 µM; in data set [1], 0.69 µM; in data set [5] it was 0.76 µM; in data set [6], 5.91 µM. Further, the Activity result with A549 is reported as “Non-Toxic”.

A word on the IC50: it is the concentration that gives 50% inhibition.
